The source of these data is ChEMBL document CHEMBL1158788, “Cytotoxic constituents of the fruit body of Daedalea dickisii” (J Nat Prod, 2005).

What all share (format): functional, cell-based
In one test the test system is HCT-15. The test can be described thus: Cytotoxicity against human HCT15 cells after 48 hrs by MTT assay. The settings on record: HCT-15, 48 h.
The subject of test [1] is HL-60. Put plainly: Cytotoxicity against human HL60 cells after 24 hrs by MTT assay. Conditions: HL-60, 24 h. (In general: Tetrazolium dyes change colour on reduction, which living cells bring about.)
Test [2] has as its system HL-60. Put plainly: Induction of apoptosis in human HL60 cells assessed as DNA fragmentation at 35 uM after 8 hrs.

The source made the active and inactive calls. The calls are words filed in the database; no cut-off is given here.

As a reminder, the IC50 is the concentration at which inhibition is half-maximal. A high value points to weaker potency in that assay.

On to `CC(C(=O)O)[C@@H](C)C(=O)C[C@@H](C)[C@H]1CC[C@@]2(C)C3=C(CC[C@]12C)[C@@]1(C)CC[C@@H](OC(=O)CC(=O)O)C(C)(C)[C@@H]1CC3` (some centres not stated) [CARBOXYACETYLQUERCINIC ACID], for which the figures for the IC50 in the test on HCT-15 and with HL-60 [1] were 155 µM and 45.2 µM, respectively.

As to `C=C(CC[C@@H](C(=O)O)[C@H]1[C@H](O)C[C@@]2(C)c3ccc(C)c(CCC(=O)C(C)C)c3CC[C@]12C)C(C)C` [DAEDALEANIC ACID A], the half-maximal inhibitory concentration (IC50) in the test on HCT-15 is 206 µM; with HL-60 [1], 36 µM.

In the case of `C=C(CC[C@@H](C(=O)O[C@@H]1O[C@H](CO)[C@@H](O)[C@H](O)[C@H]1O)[C@H]1[C@H](OC(C)=O)C[C@@]2(C)C3=CC[C@H]4C(C)(C)C(=O)CC[C@]4(C)C3=CC[C@]12C)C(C)C` [DAEDALEASIDE B], the result with HL-60 [2] was Active. Also, the figures for the IC50 in the test with HCT-15 and with HL-60 [1] were 55 µM and 9.4 µM, respectively.

Consider `C=C(CC[C@@H](C(=O)O[C@@H]1O[C@H](COC(C)=O)[C@@H](O)[C@H](O)[C@H]1O)[C@H]1[C@H](OC(C)=O)C[C@@]2(C)C3=CC[C@H]4C(C)(C)C(=O)CC[C@]4(C)C3=CC[C@]12C)C(C)C` [DAEDALEASIDE C], for which the outcome with HL-60 [2] was Active. Moreover, in the test on HL-60 [1], the midpoint of inhibition, the IC50, lay at 12 µM.

As to `C=C(CC[C@@H](C(=O)O[C@@H]1O[C@H](CO)[C@@H](O)[C@H](O)[C@H]1O)[C@H]1[C@H](OC(C)=O)C[C@@]2(C)C3=C(CC[C@]12C)[C@@]1(C)CCC(=O)C(C)(C)[C@@H]1CC3)C(C)C` [DAEDALEASIDE D], the outcome with HL-60 [2] was Active. Further, the IC50 was found to be 60 µM in the test on HCT-15 and 14 µM with HL-60 [1].

With `C=C(CC[C@@H](C(=O)O[C@@H]1O[C@H](COC(C)=O)[C@@H](O)[C@H](O)[C@H]1O)[C@H]1[C@H](OC(C)=O)C[C@@]2(C)C3=C(CC[C@]12C)[C@@]1(C)CCC(=O)C(C)(C)[C@@H]1CC3)C(C)C` [DAEDALEASIDE E], the outcome in the test on HL-60 [2] was Active. Also, in the test on HL-60 [1], it took 15 µM to reach half-maximal inhibition (IC50).

For `C=C(CC[C@@H](C(=O)O[C@@H]1O[C@H](CO)[C@@H](O)[C@H](O)[C@H]1O)[C@H]1[C@H](OC(C)=O)C[C@@]2(C)c3ccc(C)c(CCC(=O)C(C)C)c3CC[C@]12C)C(C)C` [DAEDALEASIDES A], the IC50 in the test with HCT-15 was determined as 32.3 µM; in the test on HL-60 [1] it was 27.9 µM.

As for `COc1cc([C@@H]2c3cc4c(cc3[C@@H](O[C@@H]3O[C@@H]5CO[C@@H](C)O[C@H]5[C@H](O)[C@H]3O)[C@H]3COC(=O)[C@H]23)OCO4)cc(OC)c1O` [ETOPOSIDE], the midpoint of inhibition in the test on HL-60 [1], the IC50, lay at 25 µM.
